Results published in patent US6384028B1, “N-acylpiperidinylcarbonylaminocarboxylic acids and their use as glycoprotein IIb/IIIa antagonists and fibrinogen-blood platelets binding inhibitors” (Fujisawa Pharmaceutical Co., Ltd., priority 1995, dated 2002).
Counter-ions that a name gives are not always drawn.

System: platelet aggregation induced by ADP in platelet rich plasma (PRP) prepared from human blood
Experiment: Effect on platelet aggregation induced by adenosine diphosphate (ADP)
Type: cell-based
Details: 2 min, 3×10^8 platelets/ml, drug stirred for 2 minutes at 37° C., ADP final 2.5 μM, aggregometer
Method: Test 1: Effect on Platelet Aggregation Induced by Adenosine Diphosphate (ADP)
Platelet rich plasma (PRP) which contains 3×10^8 platelets/ml was prepared from human blood. To the 225 μl of PRP, 25 μl of drug solution* was added, and then stirred for 2 minutes at 37° C. To the solution 5 μl of ADP (final 2.5 μM) was added as an aggregation inducer. Aggregation was measured by using an aggregometer (NBS HEMA-TRACER 801). Activity of inhibitor (test compound) was expressed as IC50 value i.e. dose required for […] inhibition of platelet aggregation.
Drug solution* - - - Test compound was dissolved in water.

SMILES: O=C(O)C[C@@H](CCc1ccccc1)NC(=O)[C@@H]1CCCN(C(=O)/C=C/C2CCNCC2)C1 [Example 25, N-[(R)-1-[3-(4-Piperidyl)-(E)-acryloyl]-3-piperidylcarbonyl]-3(R)-phenethyl-β-alanine Hydrochloride]
- IC50: 85 nM
